Results from patent US20230414476A1, “TETRAPEPTIDE AND COMPOSITIONS COMPRISING TETRAPEPTIDES” (THE BOOTS COMPANY, priority 2020, published 2023).

Key:
[1] = test system: Collagen I (PIP); assay: ELISA of collagen I (via PIP) in culture supernatant of human dermal fibroblasts; assay type: cell-based; conditions: normal human dermal fibroblasts, 72 hours, weighted to viable cells
Description: (§1) An ELISA is an immunological assay commonly used to measure presence and abundance of a specific proteins (antibodies, antigens, proteins and glycoproteins) in biological samples. In this case ELISAs are being used to quantify the expression of dermal extracellular proteins collagen-1, decorin, fibronectin and collagen IV. The quantity of collagen I is evaluated via the quantity of PIP (“carboxU-terminal pro-peptide of procollagen type I”) which is a peptide fragment resulting from the enzymatic degradation of procollagen present outside the fibroblast in the culture supernatant medium.
(§2) Normal human dermal fibroblasts cells (HDFs) were cultured in contact with the tetrapeptides of the present invention, or composition without the peptide (negative control), for 72 hours. Thereafter the cultured supernatants were removed, and the quantity of dermal extracellular proteins determined using an ELISA assay for the protein of interest. For the ELISA quantification, cell viability was calculated using Hoechst staining allowing the quantity of dermal proteins to be weighted to the number of viable cells.
The quantity of collagen I is evaluated using the quantity of PIP (“carboxU-terminal pro-peptide of procollagen type I”) which is a peptide fragment resulting from the enzymatic degradation of procollagen present outside the fibroblast in the culture supernatant medium.
(§3) The effect of XXGD tetrapeptides on ECM protein expression by fibroblasts as measured by ELISA (columns 1 to 2) versus a tetrapeptide not conforming to the XXGD structure (column 3) are presented in the table below (table 1). Results are expressed as % increase or decrease versus the negative control.

[2] = test system: Fibronectin; assay: ELISA of fibronectin in culture supernatant of human dermal fibroblasts; assay type: cell-based; conditions: normal human dermal fibroblasts, 72 hours, weighted to viable cells
Description: as §1, §2, §3

[3] = test system: Decorin; assay: ELISA of decorin in culture supernatant of human dermal fibroblasts; assay type: cell-based; conditions: normal human dermal fibroblasts, 72 hours, weighted to viable cells
Description: as §1, §2, §3

[4] = test system: Collagen IV; assay: ELISA of collagen IV in culture supernatant of human dermal fibroblasts; assay type: cell-based; conditions: normal human dermal fibroblasts, 72 hours, weighted to viable cells
Description: as §1, §2, §3

[5] = test system: Fibrillin-1; assay: Immunofluorescence of Fibrillin-1 expression by HDF cells; assay type: cell-based, human; conditions: primary HDF cells, 5 days
Description: Immunofluorescence relies on the use of antibodies to label a specific protein with a fluorescent dye such as fluorescein isothiocyanate (FITC). In the following experiments, indirect immunofluorescence is used where a primary antibody first recognises and attaches to the specific protein, in this case fibrillin-1, and then a secondary antibody conjugated with FITC directed against the primary antibody is used for detection.
Fibrillin-1 expression was determined using immunofluorescence. Primary human dermal fibroblast (HDF) cells were purchased from Promo Cell and came from a donor. Cells were grown in wells of 96 well black walled clear bottomed plates (Peirce, Thermo Fisher). Cells were cultured in HDF media (PromoCell) supplemented with Basic Fibroblast Growth Factor (recombinant human), 1 ng/ml and Insulin 5 μg/ml. […]
The antibody binding to Fibrillin-1 fibres was visualised using a Nikon Eclipse 100 microscope fluorescence setting using an excitation lens for fluorescein isothiocyanate (FITC). […] ImageJ software was used to quantify the Fibrillin-1 fibre abundance and coverage in each image using a threshold of 235 measuring the fibre density.
Results are expressed as a percentage increase in fibrillin abundance compared to untreated control. […]

Substance | Collagen I (PIP) expression, % increase or decrease versus the negative control ([1]; peptide 12.5 ppm) | Fibronectin expression, % increase or decrease versus the negative control ([2]; peptide 12.5 ppm) | Decorin expression, % increase or decrease versus the negative control ([3]; peptide 12.5 ppm) | Collagen IV expression, % increase or decrease versus the negative control ([4]; peptide 12.5 ppm) | Collagen I (PIP) expression, % increase or decrease versus the negative control ([1]; peptide 15 ppm) | Fibronectin expression, % increase or decrease versus the negative control ([2]; peptide 15 ppm) | Decorin expression, % increase or decrease versus the negative control ([3]; peptide 15 ppm) | Collagen IV expression, % increase or decrease versus the negative control ([4]; peptide 15 ppm) | Fibrillin-1, percentage increase in fibrillin abundance compared to untreated control ([5]; peptide 10 ppm (concentration with highest yield)) | Fibrillin-1, percentage increase in fibrillin abundance compared to untreated control ([5]; peptide 4 ppm (concentration with highest yield))
Pal-EKGD-OH | +101% | +114% | +43% | +73% | – | – | – | – | – | –
Pal-GYIL-OH [reference compound] | – | – | – | – | +18% | −38% | −13% | +6% | +3% | –
Pal-AKGD-OH | – | – | – | – | +26% | +112% | +39% | +40% | – | +116%
